Read-outs that look alike come from different tables or passages of the source.
Tests used:
GlnBP = target: GlnBP; set-up: method as in Clifton & Jackson (2016); conditions: ref Clifton & Jackson (2016), read-out: K D (ITC, literature); cited from earlier work
DEBP = target: DEBP; set-up: method as in Clifton & Jackson (2016); conditions: ref Clifton & Jackson (2016), read-out: K D (ITC, literature); cited from earlier work
HisBP = target: HisBP; set-up: method as in Paul et al. (2016); conditions: ref Paul et al. (2016), read-out: K D (ITC, literature); cited from earlier work
[1] = target: T1, histidine-binding protein (HisBP) (Escherichia coli, UniProt P0AEU0); test: biochemical
T1 sequence (P0AEU0 23-260): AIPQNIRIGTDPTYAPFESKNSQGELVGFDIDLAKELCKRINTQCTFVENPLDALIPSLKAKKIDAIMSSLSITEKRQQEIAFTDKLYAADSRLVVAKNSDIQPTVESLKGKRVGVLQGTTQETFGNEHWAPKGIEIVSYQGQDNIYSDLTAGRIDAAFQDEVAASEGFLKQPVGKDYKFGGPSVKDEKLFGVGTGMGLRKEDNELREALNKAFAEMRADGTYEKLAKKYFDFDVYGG
Description: All ITC measurements were conducted on a Malvern MicroCal PEAQ ITC at 20°C with stirring at 200 rev min^−1 using the same buffer as in SAXS measurements. The cell was initially loaded with 200 µl of 20 µM protein with an initial ligand concentration of 200 µM in the syringe to quantify His:HisBP binding. This was further adjusted in subsequent runs to resolve weaker interactions as necessary.

[2] = target: T1, histidine-binding protein (HisBP); test: biochemical; remark: listed apart in the source
Description: (§1) Titrations were conducted at fixed protein concentrations to exclude signal-to-noise factors. An initial mass concentration of 2.0 or 4.0 mg ml^−1 was employed in prospective experiments, then scaled to 2.0, 1.0, 0.5 and 0.25 mg ml^−1 in later concentration-variation studies. […] A total of eight beamline experiments were conducted, using the automated sample changing environments available on site, operated in constant-flow mode: three times at ESRF BM29, three at DESY P12, once at Australian Synchrotron SAXS/WAXS and once at Diamond B21. […] Furthermore, experiments at ESRF BM29 and Diamond B21 were carried out on site, while the DESY P12 experiment was carried out by mail-in. For these measurements, samples were prepared by pipetting ligand–protein mixtures onto 96-well plates prior to transport. As for the Australian Synchrotron measurements, apo–HisBP was lyophilized in its final buffer and reconstituted on site using pure H2O and then mixed with the ligands in 96-well plates.
(§2) Buffer-subtracted intensities provided from respective synchrotron pipelines were used as starting points for analysis. […] Thus, an intermediate value of 7.2 nm was fixed for all computations involving D max including V R.
(§3) This was used to assist in locating data points affected by sample handling errors or measurement failures, along with detectable aggregation. The ideal minimum angle after removal of parasitic scattering is 0.1–0.15 nm^−1, although a more conservative cutoff was used to collectively eliminate residual aggregation. The maximum usable q was determined by visual inspection of noise. The final ranges used across all HisBP beamline sessions were: 0.2–2.0 nm^−1 at 20 µM and below, 0.25–2.5 nm^−1 at 40 µM, and 0.3–3 nm^−1 above 80 µM. The q-ranges for DEBP and GlnBP were set to 0.1–2.8 nm^−1.
(§4) A common scattering reference is created per HisBP concentration and per beamline experiment by averaging apo protein replicates after discarding outliers. This reference is used for both V R and χlin computations.
(§5) To fit binding curves against metrics, we consider all titrations conducted per protein concentration per beamline experiment as a single set, after removing data points resulting from aggregation, preparation errors or measurement errors. […] Since the two-state binding curve at constant [R] cannot effectively discriminate between K D values much larger or smaller than [R], fitted K D values are limited to within four orders of magnitude of the receptor concentration (cf. Fig. S1). […] Error bars indicate σ of logK D from the ensemble of replicate predictions. For metrics where uncertainty was not computed (V R and V P), the uncertainty was estimated by single-point removal, where K D was recomputed after removal of each titration point. The σ of the resulting replicates are taken as the σ of logK D. To eliminate cases where the fitting process fails due to ill-constrained parameters, replicates were discarded if the fitted apo–holo differences were >3σ from the mean value of all replicates.

[3] = target: T2, aspartate/glutamate-binding protein (DEBP) (Escherichia coli, UniProt P37902); test: SAXS-based ligand titration; set-up: species or system E. coli
T2 construct: made in house; host or cells: E. coli BL21(DE3)
T2 sequence (P37902 28-302): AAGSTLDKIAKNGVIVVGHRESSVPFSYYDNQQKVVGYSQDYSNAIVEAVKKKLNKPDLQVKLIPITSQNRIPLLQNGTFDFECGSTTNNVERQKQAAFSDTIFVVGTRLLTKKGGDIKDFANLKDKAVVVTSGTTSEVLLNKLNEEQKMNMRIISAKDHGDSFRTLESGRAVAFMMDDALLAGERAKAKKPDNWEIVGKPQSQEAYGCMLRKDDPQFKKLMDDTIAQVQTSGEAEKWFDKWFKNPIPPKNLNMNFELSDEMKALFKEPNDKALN
Description: Their preliminary results have been excluded from this report.

[4] = target: T1, histidine-binding protein (HisBP); conditions: His:HisBP
Description: as §1, §2, §3, §4, §5

[5] = K D fitted to SAXS V R titration curves, AustSynch, 20s exposure, […] 10^13 photons, HisBP 19 µM
[6] = K D fitted to SAXS V R titration curves, AustSynch, 20s exposure, […] 10^13 photons, HisBP […] µM
[7] = K D fitted to SAXS V R titration curves, AustSynch, 20s exposure, […] 10^13 photons, HisBP 76 µM
[8] = K D fitted to SAXS V R titration curves, DESY, 4s exposure, […] 10^13 photons, HisBP 10 µM
[9] = K D fitted to SAXS V R titration curves, DESY, 4s exposure, […] 10^13 photons, HisBP 20 µM
[10] = K D fitted to SAXS V R titration curves, DESY, 4s exposure, […] 10^13 photons, HisBP 40 µM
[11] = K D fitted to SAXS V R titration curves, DESY, 4s exposure, […] 10^13 photons, HisBP 80 µM
[12] = K D fitted to SAXS V R titration curves, Diamond, 40s exposure, […] 10^14 photons, HisBP 10 µM
[13] = K D fitted to SAXS V R titration curves, Diamond, 40s exposure, […] 10^14 photons, HisBP 20 µM
[14] = K D fitted to SAXS V R titration curves, Diamond, 40s exposure, […] 10^14 photons, HisBP 40 µM
[15] = K D fitted to SAXS V R titration curves, Diamond, 40s exposure, […] 10^14 photons, HisBP 80 µM
[16] = K D fitted to SAXS V R titration curves, ESRF, 5s exposure, 3.0 × 10^12 photons, HisBP 160 µM
[17] = KD fitted to SAXS Rg curves, AustSynch, 20s exposure, HisBP […] µM
[18] = KD fitted to SAXS Rg curves, AustSynch, 20s exposure, HisBP 76 µM
[19] = KD fitted to SAXS Rg curves, DESY, 4s exposure, HisBP 10 µM
[20] = KD fitted to SAXS Rg curves, DESY, 4s exposure, HisBP 20 µM
[21] = KD fitted to SAXS Rg curves, DESY, 4s exposure, HisBP 40 µM
[22] = KD fitted to SAXS Rg curves, DESY, 4s exposure, HisBP 80 µM
[23] = KD fitted to SAXS Rg curves, ESRF, 5s exposure, HisBP 160 µM
[24] = KD fitted to SAXS Vc curves, AustSynch, 20s exposure, HisBP […] µM
[25] = KD fitted to SAXS Vc curves, AustSynch, 20s exposure, HisBP 76 µM
[26] = KD fitted to SAXS Vc curves, DESY, 4s exposure, HisBP 40 µM
[27] = KD fitted to SAXS Vc curves, DESY, 4s exposure, HisBP 80 µM
[28] = KD fitted to SAXS Vc curves, ESRF, 5s exposure, HisBP 160 µM
[29] = KD fitted to SAXS χlin. curves, AustSynch, 20s exposure, HisBP […] µM
[30] = KD fitted to SAXS χlin. curves, AustSynch, 20s exposure, HisBP 76 µM
[31] = KD fitted to SAXS χlin. curves, DESY, 4s exposure, HisBP 10 µM
[32] = KD fitted to SAXS χlin. curves, DESY, 4s exposure, HisBP 20 µM
[33] = KD fitted to SAXS χlin. curves, DESY, 4s exposure, HisBP 40 µM
[34] = KD fitted to SAXS χlin. curves, DESY, 4s exposure, HisBP 80 µM
[35] = KD fitted to SAXS χlin. curves, Diamond, 40s exposure, HisBP 40 µM
[36] = KD fitted to SAXS χlin. curves, Diamond, 40s exposure, HisBP 80 µM
[37] = KD fitted to SAXS χlin. curves, ESRF, 5s exposure, HisBP 152 µM

For `NC(=O)CC[C@H](N)C(=O)O` [Gln, glutamine], the Kd (GlnBP) is listed as 0.106 ± 0.065 µM.

For `N[C@@H](CC(=O)O)C(=O)O` [Asp, aspartate], the Kd (DEBP) is listed as 1.73 ± 0.49 µM.

For `NCCCC[C@H](N)C(=O)O` [Lys, lysine], the Kd (HisBP) is listed as 19.5 ± 6 µM, the Kd [1] is listed as 62 ± 11 µM and the Kd [2, 5] is listed as 110 ± 10 µM. For the same molecule, the Kd [2, 6] was 32 ± 4.6 µM, the Kd [2, 7] was 95 ± 11 µM and the Kd [2, 8] was 0.0023 ± 0.0016 µM. It also gave a Kd [2, 9] of 61 ± 6.4 µM, a Kd [2, 10] of 720 ± 350 µM and a Kd [2, 11] of 58 ± 7.5 µM. It also gave a Kd [2, 12] of 230 ± 200 µM, a Kd [2, 13] of 47 ± 3.6 µM and a Kd [2, 14] of 320 ± 210 µM. For the same molecule, the Kd [2, 15] was 89 ± 9.6 µM, the Kd [2, 16] was 49 ± 4.1 µM and the Kd ([2]; KD fitted to SAXS Rg curves, AustSynch, 20s exposure, HisBP 19 µM) was 460 ± 230 µM. The Kd [2, 17] was 340 ± 120 µM, the Kd [2, 18] was 0.031 ± 0.025 µM and the Kd [2, 19] was 1.3 ± 2.5 µM. For the same molecule, the Kd [2, 20] was 38 ± 28 µM, the Kd [2, 21] was 0.086 µM and the Kd [2, 22] was 36 ± 42 µM. The Kd ([2]; KD fitted to SAXS Rg curves, Diamond, 40s exposure, HisBP 40 µM) was 1500 ± 3200 µM, the Kd [2, 23] was 71 ± 8.9 µM and the Kd [2, 24] was 450 ± 510 µM. For the same molecule, the Kd [2, 25] was 9.5 µM, the Kd ([2]; KD fitted to SAXS Vc curves, DESY, 4s exposure, HisBP 10 µM) was 0.18 µM and the Kd ([2]; KD fitted to SAXS Vc curves, DESY, 4s exposure, HisBP 20 µM) was 44 µM. The Kd [2, 26] was 2.8 µM, the Kd [2, 27] was 9 µM and the Kd ([2]; KD fitted to SAXS Vc curves, Diamond, 40s exposure, HisBP 40 µM) was 57 µM. The Kd [2, 28] was 280 ± 450 µM, the Kd [2, 29] was 150 ± 46 µM and the Kd [2, 30] was 130 ± 14 µM. The Kd [2, 31] was 0.46 ± 0.5 µM, the Kd [2, 32] was 2.1 ± 3.2 µM and the Kd [2, 33] was 160 ± 230 µM. It also gave a Kd [2, 34] of 150 ± 40 µM, a Kd [2, 35] of 4500 ± 3400 µM and a Kd [2, 36] of 260 ± 150 µM. It also gave a Kd [2, 37] of 180 ± 15 µM.

For `NCCC[C@H](N)C(=O)O` [Orn, ornithine], the Kd (HisBP) is given as 72 ± 4 µM.

In the case of `N[C@@H](CCC(=O)O)C(=O)O` [Glu, glutamate], the “SAXS R g Exp. (saturated)” value ([3]; Glu:DEBP, ligand-excess conditions) is given as 20.6 ± 1.3 Å, the “SAXS ΔR g” value ([3]; Glu:DEBP, saturated versus apo) is given as −2.6 Å and the Kd (DEBP) is given as 0.334 ± 0.12 µM.

For `N[C@@H](Cc1c[nH]cn1)C(=O)O` [His, histidine], the Kd (HisBP) is listed as 0.064 ± 0.01 µM, the “SAXS R g Exp. (saturated)” value ([4]; ligand-excess conditions) is listed as 18.3 ± 1.0 Å and the “SAXS ΔR g” value ([4]; saturated versus apo) is listed as −1.3 Å. For the same molecule, the Kd [1] was 0.048 ± 0.0052 µM, the Kd [2, 5] was 0.062 ± 0.028 µM and the Kd [2, 6] was 1.5 ± 0.7 µM. For the same molecule, the Kd [2, 7] was 3.6 ± 0.74 µM, the Kd [2, 8] was 84 ± 68 µM and the Kd [2, 9] was 1 ± 0.19 µM. For the same molecule, the Kd [2, 10] was 3.7 ± 0.58 µM, the Kd [2, 11] was 6.4 ± 1.1 µM and the Kd [2, 12] was 0.0014 ± 0.00092 µM. It also gave a Kd [2, 13] of 0.0051 ± 0.0041 µM, a Kd [2, 14] of 0.013 ± 0.011 µM and a Kd [2, 15] of 1.3 ± 0.5 µM. For the same molecule, the Kd ([2]; K D fitted to SAXS V R titration curves, ESRF, 5s exposure, 3.0 × 10^12 photons, HisBP […] µM) was 0.24 ± 0.14 µM, the Kd [2, 16] was 0.37 ± 0.47 µM and the Kd [2, 17] was 6.3 ± 0.87 µM. For the same molecule, the Kd [2, 18] was 1.7 ± 0.87 µM, the Kd [2, 19] was 100 ± 140 µM and the Kd [2, 20] was 0.0027 ± 0.0047 µM. It also gave a Kd [2, 21] of 4.2 ± 2.4 µM, a Kd [2, 22] of 8.2 ± 1.8 µM and a Kd ([2]; KD fitted to SAXS Rg curves, Diamond, 40s exposure, HisBP 10 µM) of 0.018 µM. For the same molecule, the Kd ([2]; KD fitted to SAXS Rg curves, Diamond, 40s exposure, HisBP 20 µM) was 0.015 µM, the Kd ([2]; KD fitted to SAXS Rg curves, Diamond, 40s exposure, HisBP 80 µM) was 2.2 ± 3.1 µM and the Kd ([2]; KD fitted to SAXS Rg curves, ESRF, 5s exposure, HisBP […] µM) was 0.16 µM. The Kd [2, 23] was 0.61 ± 0.12 µM, the Kd ([2]; KD fitted to SAXS Vc curves, AustSynch, 20s exposure, HisBP 19 µM) was 0.16 µM and the Kd [2, 24] was 5.3 ± 3.7 µM. It also gave a Kd [2, 25] of 25 ± 8.1 µM, a Kd [2, 26] of 19 µM and a Kd [2, 27] of 5.8 µM. The Kd ([2]; KD fitted to SAXS Vc curves, Diamond, 40s exposure, HisBP 80 µM) was 9.9 µM, the Kd ([2]; KD fitted to SAXS Vc curves, ESRF, 5s exposure, HisBP 7.6 µM) was 2.8 µM and the Kd ([2]; KD fitted to SAXS Vc curves, ESRF, 5s exposure, HisBP […] µM) was 200 ± 490 µM. The Kd [2, 28] was 0.88 ± 2.4 µM, the Kd ([2]; KD fitted to SAXS χlin. curves, AustSynch, 20s exposure, HisBP 19 µM) was 1.2 µM and the Kd [2, 29] was 4.5 ± 1.5 µM. For the same molecule, the Kd [2, 30] was 5.1 ± 0.75 µM, the Kd [2, 31] was 4.4 ± 2.8 µM and the Kd [2, 32] was 2.9 ± 1.5 µM. It also gave a Kd [2, 33] of 13 ± 3.5 µM, a Kd [2, 34] of 15 ± 1.9 µM and a Kd ([2]; KD fitted to SAXS χlin. curves, Diamond, 40s exposure, HisBP 20 µM) of 0.07 µM. The Kd [2, 35] was 4.3 ± 4.7 µM, the Kd [2, 36] was 20 ± 3.4 µM and the Kd ([2]; KD fitted to SAXS χlin. curves, ESRF, 5s exposure, HisBP 7.6 µM) was 0.5 µM. For the same molecule, the Kd ([2]; KD fitted to SAXS χlin. curves, ESRF, 5s exposure, HisBP […] µM) was 0.099 µM and the Kd [2, 37] was 0.32 ± 0.051 µM.

With `NC(=O)C[C@H](N)C(=O)O` [Asn] the “binding suggested by SAXS titrations” value ([3]; DEBP, 2 mg ml^−1, 10^12 photons) was “unexpected binding”.

From PMC7340254, “Structure-based screening of binding affinities via small-angle X-ray scattering” (IUCrJ, 2020)
